≈ marks a conversion by molar mass, not a printed value. Each block holds one compound with its values, some of them ahead of it.
Columns and labels:
[1] = molecular target: T1, ATP-dependent translocase ABCB1 (Homo sapiens, UniProt P08183); test: Inhibition of P-gp1 efflux in human Flp-In-293 cells using rhodamine as substrate assessed as increase in intracellular accumulation of rhodamine 123 preincubated for 30 mins followed by substrate addition and measured for 10 mins by fluorescence based assay; type: cell-based
[2] = molecular target: T1, ATP-dependent translocase ABCB1; test: Inhibition of P-gp1 efflux in human Flp-In-293 cells using calcein-AM as substrate assessed as increase in intracellular accumulation of calcein-AM preincubated for 30 mins followed by substrate addition and measured for 30 mins by fluorescence based assay; type: cell-based
[3] = molecular target: T1, ATP-dependent translocase ABCB1; test: Inhibition of ABCB1 efflux pump in human LS180 cells using Rh123 as substrate incubated for 90 mins by fluorescence based assay; type: cell-based
[4] = Antiproliferative activity against daunorubicin-resistant human EPG85-257 cells incubated for 72 hrs by annexin-V-PI staining based flow cytometry; type: functional, EPG85-257RDB
cells = conditions: Homo sapiens, EPP85-181RDB, 72 h
Description: Antiproliferative activity against daunorubicin-resistant human EPP85-181 cells incubated for 72 hrs by annexin-V-PI staining based flow cytometry

L5178Y [5] = test: Cytotoxicity against multidrug-resistant mouse L5178Y cells expressing ABCB1 assessed as cell growth inhibition incubated for 24 hrs by MTT assay; type: functional, cell-based
L5178Y [6] = test: Cytotoxicity against multi-drug resistant mouse L5178Y cells expressing ABCB1 assessed as cell growth inhibition incubated for 24 hrs by MTT assay; type: functional, cell-based
[7] = molecular target: Multidrug resistance-associated protein 1 (Homo sapiens, UniProt P33527); test: Inhibition of MRP1 efflux pump in human MCF7 cells assessed as fold increase in vinblastine cellular accumulation; type: cell-based
[8] = molecular target: T1, ATP-dependent translocase ABCB1; test: Inhibition of P-gp efflux pump in human MCF7 cells assessed as fold increase in vinblastine cellular accumulation; type: cell-based
[9] = molecular target: T2, Broad substrate specificity ATP-binding cassette transporter ABCG2 (Homo sapiens, UniProt Q9UNQ0); test: Inhibition of BCRP efflux pump in human MCF7 cells assessed as fold increase in vinblastine cellular accumulation; type: cell-based
T2 sequence (Q9UNQ0 whole entry): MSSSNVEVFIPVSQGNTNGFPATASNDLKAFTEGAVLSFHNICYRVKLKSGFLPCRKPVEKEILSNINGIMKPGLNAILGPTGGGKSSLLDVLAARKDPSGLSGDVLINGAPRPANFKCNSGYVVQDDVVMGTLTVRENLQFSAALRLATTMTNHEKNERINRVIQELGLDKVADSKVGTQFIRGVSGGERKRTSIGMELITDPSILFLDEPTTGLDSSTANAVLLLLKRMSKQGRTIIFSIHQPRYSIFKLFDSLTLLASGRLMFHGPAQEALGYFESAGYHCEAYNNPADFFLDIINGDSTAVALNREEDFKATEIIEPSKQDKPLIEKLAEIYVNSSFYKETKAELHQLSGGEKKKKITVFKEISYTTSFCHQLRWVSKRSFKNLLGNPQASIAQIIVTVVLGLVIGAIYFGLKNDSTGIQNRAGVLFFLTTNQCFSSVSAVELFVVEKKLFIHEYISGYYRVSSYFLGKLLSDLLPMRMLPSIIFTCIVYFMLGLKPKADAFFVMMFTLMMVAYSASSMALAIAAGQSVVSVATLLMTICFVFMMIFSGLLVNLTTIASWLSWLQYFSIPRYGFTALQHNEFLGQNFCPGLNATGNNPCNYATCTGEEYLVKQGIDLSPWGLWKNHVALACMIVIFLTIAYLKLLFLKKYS

KB-V1 = test: cells; conditions: Homo sapiens, KB-V1, 72 h
Description: Cytotoxicity against human KB-V1 cells assessed as cell growth inhibition incubated for 72 hrs by MTS assay

KB 3-1 = test: cells; conditions: Homo sapiens, KB 3-1, 72 h
Description: Cytotoxicity against human KB 3-1 cells assessed as cell growth inhibition incubated for 72 hrs by MTS assay

[10] = Reversal of vincristine resistance in human Flp-In-293 cells expressing ABCB1 assessed as fold change in vincristine IC50 in presence of caffeic acid for 30 mins by fluorescence based assay; type: functional; conditions: 0.5 h
[11] = Reversal of paclitaxel resistance in human Flp-In-293 cells expressing ABCB1 assessed as fold change in paclitaxel IC50 in presence of caffeic acid for 30 mins by fluorescence based assay; type: functional; conditions: 0.5 h
[12] = Reversal of […] in human Flp-In-293 cells expressing ABCB1 assessed as fold change in doxorubicin IC50 in presence of caffeic acid for 30 mins by fluorescence based assay; type: functional; conditions: 0.5 h
[13] = Reversal of vincristine resistance in human Flp-In-293 cells expressing ABCB1 assessed as cell growth inhibition in presence of caffeic acid for 30 mins by fluorescence based assay; type: functional; conditions: Flp-In-293, 0.5 h
[14] = Reversal of paclitaxel resistance in human Flp-In-293 cells expressing ABCB1 assessed as cell growth inhibition in presence of caffeic acid for 30 mins by fluorescence based assay; type: functional; conditions: Flp-In-293, 0.5 h
[15] = Reversal of doxorubicin resistance in human Flp-In-293 cells expressing ABCB1 assessed as cell growth inhibition in presence of caffeic acid for 30 mins by fluorescence based assay; type: functional; conditions: Flp-In-293, 0.5 h

T1 sequence (P08183 whole entry): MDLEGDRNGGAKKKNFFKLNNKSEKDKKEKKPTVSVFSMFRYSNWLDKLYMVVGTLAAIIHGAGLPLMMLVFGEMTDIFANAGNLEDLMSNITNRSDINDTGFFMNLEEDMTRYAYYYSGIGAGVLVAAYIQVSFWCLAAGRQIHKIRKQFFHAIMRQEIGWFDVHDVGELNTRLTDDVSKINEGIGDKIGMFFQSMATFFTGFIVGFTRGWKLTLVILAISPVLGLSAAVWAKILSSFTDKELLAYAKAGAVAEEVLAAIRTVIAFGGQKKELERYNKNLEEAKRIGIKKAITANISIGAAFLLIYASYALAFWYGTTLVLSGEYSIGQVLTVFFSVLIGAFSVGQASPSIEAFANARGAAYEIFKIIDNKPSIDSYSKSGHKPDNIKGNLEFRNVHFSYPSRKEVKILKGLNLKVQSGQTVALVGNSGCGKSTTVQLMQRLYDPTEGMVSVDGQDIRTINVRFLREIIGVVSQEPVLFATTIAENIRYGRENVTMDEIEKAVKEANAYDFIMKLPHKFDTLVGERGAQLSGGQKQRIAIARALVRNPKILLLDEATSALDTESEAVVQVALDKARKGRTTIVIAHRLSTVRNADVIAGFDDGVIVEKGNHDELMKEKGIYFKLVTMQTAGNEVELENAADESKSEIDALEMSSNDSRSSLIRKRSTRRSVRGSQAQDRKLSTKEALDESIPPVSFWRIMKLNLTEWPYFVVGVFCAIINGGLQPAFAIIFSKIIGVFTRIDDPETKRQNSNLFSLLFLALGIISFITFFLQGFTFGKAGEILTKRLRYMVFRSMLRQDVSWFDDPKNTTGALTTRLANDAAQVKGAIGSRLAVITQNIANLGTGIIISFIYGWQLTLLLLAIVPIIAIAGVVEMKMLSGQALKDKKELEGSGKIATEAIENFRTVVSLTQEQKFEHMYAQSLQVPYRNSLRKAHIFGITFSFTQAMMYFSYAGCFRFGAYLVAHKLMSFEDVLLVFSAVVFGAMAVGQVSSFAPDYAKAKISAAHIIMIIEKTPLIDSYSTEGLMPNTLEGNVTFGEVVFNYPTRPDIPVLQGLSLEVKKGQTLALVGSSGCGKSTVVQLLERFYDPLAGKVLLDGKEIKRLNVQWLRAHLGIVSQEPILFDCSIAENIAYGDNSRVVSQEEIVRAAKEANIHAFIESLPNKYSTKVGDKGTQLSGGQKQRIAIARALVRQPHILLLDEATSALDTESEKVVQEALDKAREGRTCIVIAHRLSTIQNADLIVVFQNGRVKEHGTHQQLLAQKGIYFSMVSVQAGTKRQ
Multidrug resistance-associated protein 1, sequence (P33527 whole entry): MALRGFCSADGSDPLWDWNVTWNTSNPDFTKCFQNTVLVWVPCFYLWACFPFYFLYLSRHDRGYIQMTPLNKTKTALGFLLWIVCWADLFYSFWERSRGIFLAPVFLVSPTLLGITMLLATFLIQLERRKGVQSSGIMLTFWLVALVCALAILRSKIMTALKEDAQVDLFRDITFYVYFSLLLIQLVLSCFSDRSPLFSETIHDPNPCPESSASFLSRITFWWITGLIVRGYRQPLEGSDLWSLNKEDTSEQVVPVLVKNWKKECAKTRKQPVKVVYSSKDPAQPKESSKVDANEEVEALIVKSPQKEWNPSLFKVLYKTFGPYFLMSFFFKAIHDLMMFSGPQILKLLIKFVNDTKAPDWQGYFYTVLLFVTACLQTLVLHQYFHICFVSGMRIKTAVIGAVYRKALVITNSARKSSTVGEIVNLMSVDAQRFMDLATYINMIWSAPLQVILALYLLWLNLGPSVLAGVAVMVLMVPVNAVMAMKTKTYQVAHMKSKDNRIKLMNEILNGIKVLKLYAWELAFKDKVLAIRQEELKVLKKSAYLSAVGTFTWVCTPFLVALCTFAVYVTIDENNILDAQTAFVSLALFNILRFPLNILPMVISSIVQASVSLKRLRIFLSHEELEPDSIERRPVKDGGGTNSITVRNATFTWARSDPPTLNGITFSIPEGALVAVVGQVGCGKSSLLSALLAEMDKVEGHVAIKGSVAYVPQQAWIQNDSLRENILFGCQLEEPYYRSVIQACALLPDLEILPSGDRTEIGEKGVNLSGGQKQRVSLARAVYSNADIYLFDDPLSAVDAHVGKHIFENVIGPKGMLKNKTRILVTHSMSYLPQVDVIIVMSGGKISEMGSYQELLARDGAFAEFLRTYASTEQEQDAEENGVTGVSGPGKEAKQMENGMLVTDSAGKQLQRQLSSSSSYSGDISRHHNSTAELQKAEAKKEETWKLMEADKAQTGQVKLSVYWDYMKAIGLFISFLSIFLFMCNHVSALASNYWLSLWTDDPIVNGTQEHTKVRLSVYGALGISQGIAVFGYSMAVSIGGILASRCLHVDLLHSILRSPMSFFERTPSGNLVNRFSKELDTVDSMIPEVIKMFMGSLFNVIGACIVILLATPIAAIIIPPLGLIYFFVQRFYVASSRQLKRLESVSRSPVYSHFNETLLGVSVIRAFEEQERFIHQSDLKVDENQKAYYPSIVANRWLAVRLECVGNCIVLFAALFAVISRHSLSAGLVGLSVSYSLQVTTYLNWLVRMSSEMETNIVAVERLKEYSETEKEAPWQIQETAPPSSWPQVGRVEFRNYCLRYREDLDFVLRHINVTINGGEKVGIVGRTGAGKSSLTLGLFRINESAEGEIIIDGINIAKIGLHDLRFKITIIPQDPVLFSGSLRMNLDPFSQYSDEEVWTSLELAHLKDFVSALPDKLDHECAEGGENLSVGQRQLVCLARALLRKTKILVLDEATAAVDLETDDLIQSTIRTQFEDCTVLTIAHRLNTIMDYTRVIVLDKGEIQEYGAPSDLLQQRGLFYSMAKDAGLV

SMILES: C#CCn1c(-c2ccc(OC)cc2)nc2cc(Br)cnc21
IC50 (L5178Y [5]): 0.2 µM

SMILES: O=C(C(C(=O)C(F)(F)C(F)(F)F)=P(c1ccccc1)(c1ccccc1)c1ccccc1)c1ccccc1
IC50 (L5178Y [6]): 39.4 µg/mL (≈ 74.7 µM)

SMILES: O=C(C(C(=O)C(F)(F)C(F)(F)C(F)(F)F)=P(c1ccccc1)(c1ccccc1)c1ccccc1)c1ccccc1
IC50 (L5178Y [6]): 42.4 µg/mL (≈ 73.5 µM)

SMILES: O=C(C(C(=O)C(F)(F)F)=P(c1ccccc1)(c1ccccc1)c1ccccc1)c1ccccc1
IC50 (L5178Y [6]): 37 µg/mL (≈ 77.7 µM)

SMILES: O=C(O)/C=C/c1ccc(O)c(O)c1 [CAFFEIC ACID]
fold change (FC) [10]: 3.9 | fold change (FC) [11]: 4.96 | fold change (FC) [12]: 15.11 | IC50 [13]: 0.198 µM | IC50 [14]: 0.125 µM | IC50 [15]: 0.597 µM

The next lines start with results.

IC50 [1]: 1.56 µM | IC50 [2]: 1.56 µM
SMILES: COc1cc(/C=C/C(=O)CC(=O)/C=C/c2ccc(O)cc2)ccc1O

EC50 [3]: 35 µM
SMILES: O=C(Nc1ccc(F)cc1)c1sccc1Nc1cccc2c1OCCO2

EC50 [3]: 35 µM
SMILES: O=C(Nc1ccc(F)cc1)c1sccc1Nc1cccc2c1OCO2

IC50 (cells): 4.8 µM
SMILES: C=C1[C@H](OC(=O)C(C)C)C[C@@H](OC(=O)c2cccnc2)C(C)(C)/C=C/[C@@H](C)C(=O)[C@@]2(OC(C)=O)C[C@H](C)[C@H](OC(C)=O)[C@@H]2[C@H]1OC(C)=O
IC5 [4]: 1.8 µM

fold change (FC) [7]: 3 | fold change (FC) [8]: 3 | fold change (FC) [9]: 3
SMILES: CCCN(CCC)S(=O)(=O)c1ccc(C(=O)CC[C@H](N)C(=O)O)cc1

IC50 (KB-V1): 15.1 µM | IC50 (KB 3-1): 11.5 µM
SMILES: COc1ccc(CCC2c3cc(OCc4ccccc4)c(OC)cc3CCN2C)cc1OCc1ccccc1 (racemic)

IC50 (KB-V1): 7.95 µM | IC50 (KB 3-1): 23.9 µM
SMILES: C/C=C/C[C@@H](C)[C@@H](O)[C@H]1C(=O)N[C@@H](CC)C(=O)N(C)CC(=O)N(C)[C@@H](CC(C)C)C(=O)N[C@@H](C(C)C)C(=O)N(C)[C@@H](CC(C)C)C(=O)N[C@@H](C)C(=O)N[C@H](C)C(=O)N(C)[C@@H](CC(C)C)C(=O)N(C)[C@@H](CC(C)C)C(=O)N(C)[C@@H](C(C)C)C(=O)N1C [CYCLOSPORINE]

Source: ChEMBL document CHEMBL5346860, “Cancer multidrug-resistance reversal by ABCB1 inhibition: A recent update” (Eur J Med Chem, 2022)
